Measurements from PMC10712727, “Safety, Tolerability, and Pharmacokinetics of Senaparib, a Novel PARP1/2 Inhibitor, in Chinese Patients With Advanced Solid Tumors: A Phase I Trial” (The Oncologist, 2023).

Test: Plasma pharmacokinetics after single-dose administration (HPLC-MS/MS)
Type: in vivo, human
Description: Dose escalation was conducted using a modified Fibonacci 3 + 3 method (Supplementary Fig. […] At a given dose level, each patient received a single dose of senaparib followed by a 7-day washout period. They then entered a continuous dosing period to confirm the safety and PK profile, in which they received senaparib QD from day 1 to day 21 of each 3-week cycle. Progression to the next higher dose required approval from the Data Safety Monitoring Committee (DSMC) upon review of the safety and PK data of the previous dose. A 50-mg twice-daily (BID) dosing group was added (planned enrollment, n = 6 patients) based on a DSMC review of the safety, PK, and efficacy analysis of the completed QD dose groups in the phase I clinical trial of senaparib dose escalation in Australia (NCT03507543), which commenced prior to the start of this trial. Safety was assessed by recording the incidence of dose-limiting toxicities (DLTs), and the incidence, nature, severity (graded per National Cancer Institute Common Terminology Criteria for Adverse Events version 4.03 [NCI CTCAE v4.03][18]), and relatedness of treatment-emergent adverse events (TEAEs). DLTs were predefined toxicities (Supplementary Table S2) recorded over the 7 days following the single-dose administration of senaparib and during the first treatment cycle (day 1-day 21) for each dose group in the dose-escalation period only. […] Senaparib PK parameters were derived from blood samples collected from patients after the single administration, and at regular intervals during the first cycle of the dose-escalation and dose-expansion periods. Plasma concentrations of senaparib were determined using high-performance liquid chromatography-tandem mass spectrometry. […] There was no formal sample size calculation based on statistical hypothesis testing for this study; the planned enrolment was approximately 30-60 patients across the dose-escalation and dose-expansion cohorts. The actual number in the dose-escalation cohort was adjusted based on the number of dose cohorts required for the modified Fibonacci dose-escalation design and the determined MTD. Definitions for all analysis populations (safety, DLT, PK, and efficacy [intent-to-treat, ITT]) are provided in Supplementary Table S2. No statistical tests were performed; patient demographic and baseline characteristics, safety/tolerability, PK parameters, and efficacy were evaluated descriptively. ORR and DCR and their 95% CIs were calculated for each group using the exact probability method. Kaplan-Meier statistics were used to estimate DOR and PFS, and their 95% CIs for each dose group separately. Dose linearity was explored based on the single-dose data of area under the time-concentration curve (AUC) and maximum plasma concentration (Cmax) using the power model (Y = α × dose β) for the dose range 2-80 mg on a log-transformed scale. The following criterion was used to determine whether dose proportionality was met: if the (2-sided) 90% CI for β was wholly contained within the interval (1 + log(0.5)/log(r), 1 + log(2)/log(r)), then dose proportionality was supported. Here, r was defined as the ratio of the highest to lowest dose. All data analyses were carried out using SAS EG7.1 or higher or (for PK parameters) WinNonlin 7.0 or higher.

Q: For `O=C(c1cc(Cn2c(=O)[nH]c(=O)c3c(F)cccc32)ccc1F)N1CCN(c2ncccn2)CC1` [Senaparib], which “Elimination half-life, range” value (human, in vivo) is on record?
A: 5.1 to 24.3 h

Q: And the “Mean apparent clearance, range across dose groups” value (human, in vivo)?
A: 1.0 to 6.3 L/h

Q: And the “Mean volume of distribution, range across dose groups” value (human, in vivo)?
A: 15.5 to 88.7 L

Q: What about the “Median time to Cmax, range across dose groups” value (human, in vivo) of the same compound?
A: 0.5 to 6.0 h

Q: And the “AUC0-inf, mean±SD” value (human, in vivo, 2 mg)?
A: 1754.1 ng·h/mL

Q: And the “AUC0-t, mean±SD” value (human, in vivo, 2 mg)?
A: 1462.4 ng·h/mL

Q: And the “CL/F, mean±SD” value (human, in vivo, 2 mg)?
A: 1.1 L/h

Q: What about the “Cmax, mean±SD” value (human, in vivo, 2 mg) of the same compound?
A: 177.0 ng/mL

Q: And the “Tmax, median (range)” value (human, in vivo, 2 mg)?
A: 1.0 (1.0-1.0) h

Q: What about the “Vd/F, mean±SD” value (human, in vivo, 2 mg) of the same compound?
A: 21.3 L

Q: What about the “t½, median (range)” value (human, in vivo, 2 mg) of the same compound?
A: 13.0 (13.0-13.0) h

Q: What about the “λz, mean±SD” value (human, in vivo, 2 mg) of the same compound?
A: 5.3 h⁻¹

Q: And the “AUC0-inf, mean±SD” value (human, in vivo, 5 mg)?
A: 4107.2 ± 2303.2 ng·h/mL

Q: And the “AUC0-t, mean±SD” value (human, in vivo, 5 mg)?
A: 3912.7 ± 2180.7 ng·h/mL

Q: What about the “CL/F, mean±SD” value (human, in vivo, 5 mg) of the same compound?
A: 1.5 ± 0.7 L/h

Q: What about the “Cmax, mean±SD” value (human, in vivo, 5 mg) of the same compound?
A: 378.7 ± 76.1 ng/mL

Q: What about the “Tmax, median (range)” value (human, in vivo, 5 mg) of the same compound?
A: 1.9 (1.9-2.0) h

Q: And the “Vd/F, mean±SD” value (human, in vivo, 5 mg)?
A: 15.5 ± 3.5 L

Q: And the “t½, median (range)” value (human, in vivo, 5 mg)?
A: 7.7 (5.8-10.8) h

Q: What about the “λz, mean±SD” value (human, in vivo, 5 mg) of the same compound?
A: 5.2 ± 4.6 h⁻¹

Q: What about the “AUC0-inf, mean±SD” value (human, in vivo, 10 mg) of the same compound?
A: 9954.7 ± 1274.9 ng·h/mL

Q: What about the “AUC0-t, mean±SD” value (human, in vivo, 10 mg) of the same compound?
A: 9053.7 ± 887.5 ng·h/mL

Q: What about the “CL/F, mean±SD” value (human, in vivo, 10 mg) of the same compound?
A: 1.0 ± 0.1 L/h

Q: And the “Cmax, mean±SD” value (human, in vivo, 10 mg)?
A: 606.7 ± 93.5 ng/mL

Q: And the “Tmax, median (range)” value (human, in vivo, 10 mg)?
A: 4.0 (2.0-4.0) h

Q: What about the “Vd/F, mean±SD” value (human, in vivo, 10 mg) of the same compound?
A: 19.6 ± 0.8 L

Q: And the “t½, median (range)” value (human, in vivo, 10 mg)?
A: 14.4 (11.0-15.2) h

Q: And the “λz, mean±SD” value (human, in vivo, 10 mg)?
A: 5.2 ± 0.9 h⁻¹

Q: What about the “AUC0-inf, mean±SD” value (human, in vivo, 20 mg) of the same compound?
A: 18 955.2±3835.6 h*ng/mL

Q: And the “AUC0-t, mean±SD” value (human, in vivo, 20 mg)?
A: 16 945.0±11 287.2 h*ng/mL

Q: What about the “CL/F, mean±SD” value (human, in vivo, 20 mg) of the same compound?
A: 1.7 ± 1.4 L/h

Q: And the “Cmax, mean±SD” value (human, in vivo, 20 mg)?
A: 1453.3 ± 408.1 ng/mL

Q: And the “Tmax, median (range)” value (human, in vivo, 20 mg)?
A: 1.9 (1.8-1.9) h

Q: What about the “Vd/F, mean±SD” value (human, in vivo, 20 mg) of the same compound?
A: 19.1 ± 4.5 L

Q: What about the “t½, median (range)” value (human, in vivo, 20 mg) of the same compound?
A: 11.2 (5.1-17.1) h

Q: And the “λz, mean±SD” value (human, in vivo, 20 mg)?
A: 3.5 ± 3.1 h⁻¹

Q: And the “AUC0-inf, mean±SD” value (human, in vivo, 40 mg)?
A: 16 904.8±4182.4 h*ng/mL

Q: What about the “AUC0-t, mean±SD” value (human, in vivo, 40 mg) of the same compound?
A: 16 428.2±3762.6 h*ng/mL

Q: What about the “CL/F, mean±SD” value (human, in vivo, 40 mg) of the same compound?
A: 2.5 ± 0.7 L/h

Q: What about the “Cmax, mean±SD” value (human, in vivo, 40 mg) of the same compound?
A: 1680.0 ± 148.0 ng/mL

Q: And the “Tmax, median (range)” value (human, in vivo, 40 mg)?
A: 1.8 (1.0-1.8) h

Q: And the “Vd/F, mean±SD” value (human, in vivo, 40 mg)?
A: 30.9 ± 2.6 L

Q: And the “t½, median (range)” value (human, in vivo, 40 mg)?
A: 9.3 (7.3-10.2) h

Q: And the “λz, mean±SD” value (human, in vivo, 40 mg)?
A: 7.9 ± 1.4 h⁻¹

Q: What about the “AUC0-inf, mean±SD” value (human, in vivo, 50 mg) of the same compound?
A: 35 588.9±27 788.9 h*ng/mL

Q: And the “AUC0-t, mean±SD” value (human, in vivo, 50 mg)?
A: 12 067.8±5895.4 h*ng/mL

Q: And the “CL/F, mean±SD” value (human, in vivo, 50 mg)?
A: 2.4 ± 2.0 L/h

Q: What about the “Cmax, mean±SD” value (human, in vivo, 50 mg) of the same compound?
A: 1560.0 ± 564.3 ng/mL

Q: And the “Tmax, median (range)” value (human, in vivo, 50 mg)?
A: 0.7 (0.5-3.5) h

Q: And the “Vd/F, mean±SD” value (human, in vivo, 50 mg)?
A: 36.4 ± 8.6 L

Q: And the “t½, median (range)” value (human, in vivo, 50 mg)?
A: 16.5 (5.7-24.3) h

Q: What about the “λz, mean±SD” value (human, in vivo, 50 mg) of the same compound?
A: 3.3 ± 2.9 h⁻¹

Q: What about the “AUC0-inf, mean±SD” value (human, in vivo, 60 mg) of the same compound?
A: 25 575.8±10 554.7 h*ng/mL

Q: And the “AUC0-t, mean±SD” value (human, in vivo, 60 mg)?
A: 24 929.7±9991.9 h*ng/mL

Q: What about the “CL/F, mean±SD” value (human, in vivo, 60 mg) of the same compound?
A: 2.6 ± 0.9 L/h

Q: And the “Cmax, mean±SD” value (human, in vivo, 60 mg)?
A: 2476.7 ± 342.7 ng/mL

Q: What about the “Tmax, median (range)” value (human, in vivo, 60 mg) of the same compound?
A: 2.0 (2.0-3.6) h

Q: And the “Vd/F, mean±SD” value (human, in vivo, 60 mg)?
A: 32.0 ± 8.8 L

Q: What about the “t½, median (range)” value (human, in vivo, 60 mg) of the same compound?
A: 8.5 (7.9-9.9) h

Q: What about the “λz, mean±SD” value (human, in vivo, 60 mg) of the same compound?
A: 8.0 ± 0.9 h⁻¹

Q: What about the “AUC0-inf, mean±SD” value (human, in vivo, 80 mg) of the same compound?
A: 76 255.9±33 943.0 h*ng/mL

Q: And the “AUC0-t, mean±SD” value (human, in vivo, 80 mg)?
A: 62 385.0±22 693.1 h*ng/mL

Q: And the “CL/F, mean±SD” value (human, in vivo, 80 mg)?
A: 1.2 ± 0.6 L/h

Q: What about the “Cmax, mean±SD” value (human, in vivo, 80 mg) of the same compound?
A: 3860.0 ± 1475.0 ng/mL

Q: And the “Tmax, median (range)” value (human, in vivo, 80 mg)?
A: 2.0 (2.0-2.0) h

Q: What about the “Vd/F, mean±SD” value (human, in vivo, 80 mg) of the same compound?
A: 30.6 ± 14.5 L

Q: What about the “t½, median (range)” value (human, in vivo, 80 mg) of the same compound?
A: 17.0 (13.3-23.7) h

Q: And the “λz, mean±SD” value (human, in vivo, 80 mg)?
A: 4.1 ± 1.1 h⁻¹

Q: And the “AUC0-inf, mean±SD” value (human, in vivo, 100 mg)?
A: 40 487.6±20 226.7 h*ng/mL

Q: What about the “AUC0-t, mean±SD” value (human, in vivo, 100 mg) of the same compound?
A: 38 505.2±18 191.9 h*ng/mL

Q: What about the “CL/F, mean±SD” value (human, in vivo, 100 mg) of the same compound?
A: 3.1 ± 1.6 L/h

Q: What about the “Cmax, mean±SD” value (human, in vivo, 100 mg) of the same compound?
A: 3425.0 ± 1516.1 ng/mL

Q: What about the “Tmax, median (range)” value (human, in vivo, 100 mg) of the same compound?
A: 2.0 (1.0-4.0) h

Q: What about the “Vd/F, mean±SD” value (human, in vivo, 100 mg) of the same compound?
A: 39.6 ± 1.1 L

Q: What about the “t½, median (range)” value (human, in vivo, 100 mg) of the same compound?
A: 10.4 (6.6-12.9) h

Q: And the “λz, mean±SD” value (human, in vivo, 100 mg)?
A: 5.7 ± 3.3 h⁻¹

Q: And the “AUC0-inf, mean±SD” value (human, in vivo, 120 mg)?
A: 68 650.9±89 085.5 h*ng/mL

Q: What about the “AUC0-t, mean±SD” value (human, in vivo, 120 mg) of the same compound?
A: 55 962.4±66 684.5 h*ng/mL

Q: And the “CL/F, mean±SD” value (human, in vivo, 120 mg)?
A: 6.3 ± 5.8 L/h

Q: What about the “Cmax, mean±SD” value (human, in vivo, 120 mg) of the same compound?
A: 3348.3 ± 2828.8 ng/mL

Q: And the “Tmax, median (range)” value (human, in vivo, 120 mg)?
A: 1.9 (1.8-6.0) h

Q: And the “Vd/F, mean±SD” value (human, in vivo, 120 mg)?
A: 88.7 ± 86.2 L

Q: And the “t½, median (range)” value (human, in vivo, 120 mg)?
A: 11.3 (6.3-23.8) h

Q: What about the “λz, mean±SD” value (human, in vivo, 120 mg) of the same compound?
A: 3.8 ± 2.9 h⁻¹

Q: What about the “Senaparib exposure (Cmax and AUC) versus dose” value (single dose, 80-120 mg) of the same compound?
A: appeared to plateau
